Test results reported in US9962623B2, “Process to remove product alcohols from fermentation broth” (BUTAMAX ADVANCED BIOFUELS LLC, priority 2011, dated 2018).

System: yeast strain, Saccharomyces cerevisiae
Assay: Effect of disinfectant on cell viability
Assay type: cell-based
Conditions: 5 mL cells mixed with 5 mL disinfectant solution
Description: A study was conducted to determine the effect of disinfectant on the viability of a yeast strain, Saccharomyces cerevisiae. The primary culture was prepared by incubating seed stock of the yeast in 10 mL tubes containing YPS media at 30° C. for 24 hours in an incubator shaker (Innova 4200, New Brunswick Scientific, Edison, N.J.). Klett flasks containing 50 mL broth were then inoculated with the aliquots of primary culture, and the flasks were incubated at 30° C. in an incubator shaker. The cells were grown until the Klett readings reached about 220. Dey-Engley neutralizing broth (DE broth) (Sigma-Aldrich Corp., St. Louis, Mo.) was used as the neutralizing dilution agent. […] Thin plates were also prepared with the DE broth/agar. […] Cells (5 mL) were mixed with 5 mL sterile PBS or 5 mL of the disinfectant solutions, and incubated for various time points (0.5, 1, 2.5, 5, or 10 minutes). […] After drying, the plates were inverted and incubated at 30° C. The black bar denotes the maximum detection limit of this test.

Measured: cell viability (cells counted on DE broth/agar plates)

CCO [70% alcohol, ethanol]
<10: 0.5 minutes incubation | 1 minute incubation | 2.5 minutes incubation | 5 minutes incubation | 10 minutes incubation
